Entries after “also recorded” stand apart in the source; their conditions may differ.
Tests used:
[1] = test system: monocot bentgrass (Agrostis stolonifera); experiment: primary bioassay, bentgrass seeds exposed to 1000 μM solution for 7 days; type: in vivo; settings: for growth of bentgrass seedlings: compared to negative controls H2O or 10% acetone
Description: The phytotoxic activity of compounds belonging to formula (III), (V), or (VII) classes were evaluated in a primary bioassay. The synthetic triketone herbicides mesotrione and sulcotrione were used as positive controls. The seeds of monocot bentgrass (Agrostis stolonifera) and dicot Arabidopsis (Arabidopsis thaliana) were exposed for 7 days to 1000 μM solution of each chemical. […] Chlorosis of treated seedlings is a common symptom of HPPD enzyme inhibition, and the obtained results are an initial confirmation this mode of action for these new compounds. Next, a detailed assessment of phytotoxic activity of potential herbicide candidates was accomplished by measurement a growth of duckweed (Lemna paucicostata) frond surface (Table 1). Mesotrione and sulcotrione were used as positive controls.
(§1) The synthetic triketone herbicides mesotrione and sulcotrione were used as positive controls. For comparative purposes, water as well as 10% acetone in water were used as negative controls. The seeds of monocot bentgrass (Agrostis stolonifera) and dicot Arabidopsis (Arabidopsis thaliana) were exposed for 7 days to 1000 μM solution of each chemical. […] Chlorosis of treated seedlings is a common symptom of a typical HPPD enzyme inhibition, and the obtained results are an initial confirmation this mode of action for these new compounds.
The synthetic triketone herbicides mesotrione and sulcotrione were used as positive controls. For comparative purposes, water as well as 10% acetone in water were used as negative controls. The seeds of monocot bentgrass (Agrostis stolonifera) and dicot Arabidopsis (Arabidopsis thaliana) were exposed for 7 days to 1000 μM solution of each chemical.
as §1, with “The phytotoxic activity of compounds belonging to formula (VII) (compounds (VII-1) and (VII-2)) was evaluated in a primary bioassay. The synthetic” for “The synthetic”

[2] = test system: duckweed (Lemna paucicostata); experiment: secondary bioassay, dose-response curve based on growth rate of duckweed frond surface; type: in vivo; settings: for IC50: Lemna aequinoctialis, growth rate of duckweed (Lemna paucicostata) frond surface, read-out: IC50 (μM), herbicidal activity in a secondary bioassay; for activity compared with commercial herbicides bentazon, clomazone, glyphosate, glufosinate, asulam, chloropropham and EPTC in the same bioassay: comparison with data of Michel, A., et al. (2004)
Description: The phytotoxic activity of compounds belonging to formula (III), (V), or (VII) classes were evaluated in a primary bioassay. […] The seeds of monocot bentgrass (Agrostis stolonifera) and dicot Arabidopsis (Arabidopsis thaliana) were exposed for 7 days to 1000 μM solution of each chemical. […] Next, a detailed assessment of phytotoxic activity of potential herbicide candidates was accomplished by measurement a growth of duckweed (Lemna paucicostata) frond surface (Table 1).
Next, a detailed assessment of the phytotoxic activity of the potential herbicide candidates was done by calculating dose-response curve base on growth rate of duckweed (Lemna paucicostata) frond surface.
Next, a detailed assessment of the phytotoxic activity of the potential herbicide candidates was done by calculating dose-response curves base on growth rate of duckweed (Lemna paucicostata) frond surface.
Next, a detailed assessment of the phytotoxic activity of the potential herbicide candidates was done by calculating dose-response curve based on the growth rate of duckweed (Lemna paucicostata) frond surface.

| Compound | chlorosis of bentgrass seedlings [1] | growth of bentgrass seedlings [1] | IC50 [2] | activity compared with commercial herbicides bentazon, clomazone, glyphosate, glufosinate, asulam, chloropropham and EPTC in the same bioassay [2] |
| --- | --- | --- | --- | --- |
| CC1(C)OC(=O)C(=C(O)c2ccc(S(C)(=O)=O)cc2Cl)C(=O)O1 [III-1, 5-(2-chloro-4-(methylsulfonyl)benzoyl)-2,2-dimethyl-1,3-dioxane-4,6-dione] | did not develop chlorosis | growth of some of them was reduced | – | – |
| CC1(C)OC(=O)C(=C(O)c2ccc(C(F)(F)F)cc2[N+](=O)[O-])C(=O)O1 [III-2, 2,2-dimethyl-5-(2-nitro-4-(trifluoromethyl)benzoyl)-1,3-dioxane-4,6-dione] | most of them were chlorotic; also recorded: most of them developed symptoms of chlorosis | significantly impacted growth; also recorded: significantly reduced growth | 1.9 µM | more active |
| CC1(C)OC(=O)C(=C(O)c2ccc(S(C)(=O)=O)cc2[N+](=O)[O-])C(=O)O1 [III-3, 2,2-dimethyl-5-(4-(methylsulfonyl)-2-nitrobenzoyl)-1,3-dioxane-4,6-dione] | did not develop chlorosis | growth of some of them was reduced | – | – |
| CC1(C)OC(=O)C(=C(O)CCc2ccccc2)C(=O)O1 [III-4, 2,2-dimethyl-5-(3-phenylpropanoyl)-1,3-dioxane-4,6-dione] | – | – | 13.2 µM | – |
| O=C1OC2(CCCC2)OC(=O)C1=C(O)CCc1ccccc1 [III-5, 8-(3-phenylpropanoyl)-6, 10-dioxaspiro [4.5] decane-7,9-dione] | – | – | 17.9 µM | – |
| CCCC1(CCC)OC(=O)C(=C(O)CCc2ccccc2)C(=O)O1 [III-6, 5-(3-phenylpropanoyl)-2,2-dipropyl-1,3-dioxane-4,6-dione] | – | – | 2.6 µM | more active |
| CC(C)CC(O)=C1C(=O)OC(C)(C)OC1=O [VII-1, 2,2-dimethyl-5-(3-methylbutanoyl)-1,3-dioxane-4,6-dione] | – | – | 1.14 µM | – |
| CC(C)CC(O)=C1C(=O)OC2(CCCC2)OC1=O [VII-2, 8-(3-methylbutanoyl)-6,10-dioxaspiro [4.5] decane-7,9-dione] | – | – | 3.3 µM | – |
